From ChEMBL document CHEMBL4483862, “Open-source discovery of chemical leads for next-generation chemoprotective antimalarials” (2018)

Tested on: Plasmodium berghei
Assay: Luciferase/luciferin-expressing antifolate-resistant parasites were used to infect a culture of HepG2 cells that were pre-incubated with compounds. Infected hepatocytes emit light due to the luciferase reaction. Assay results are presented as the percent inhibition of light emission compared to control. […]
Format: functional
Conditions: sporozoite; for IC90: read-out: LUCIFERASE INFECTION ASSAY - IC90
[1] = read-out: LUCIFERASE INFECTION ASSAY - IC50

SMILES | IC90 | further results
Oc1cc(C(F)(F)F)nc2ccc(F)cc12 | > 14.3 µM | IC50 (PBLUC_HILL_SLOPE 1.66, PBLUC_R_SQUARED 0.446, read-out: LUCIFERASE INFECTION ASSAY - IC50): 6.54 µM
Cc1ccccc1-c1noc(-c2cc(-c3cccs3)[nH]n2)n1 | > 10 µM | IC50 (HEPG2TOX_HILL_SLOPE 8.85, HEPG2TOX_R_SQUARED 0.0358, read-out: LUCIFERASE INFECTION ASSAY - IC50): > 10 µM
N#Cc1c(SCC(=O)c2ccccc2)nc2c(c1-c1ccccc1)CCCC2 | 6.39 µM | IC50 (HEPG2TOX_HILL_SLOPE 0.131, HEPG2TOX_R_SQUARED 0.0459, PBLUC_HILL_SLOPE 1.72, PBLUC_R_SQUARED 0.594, read-out: LUCIFERASE INFECTION ASSAY - IC50): 1.78 µM
O=C(Nc1nn[nH]n1)c1ccc(S(=O)(=O)N2CCCCCC2)cc1 | 9.99 µM | IC50 (PBLUC_HILL_SLOPE 18.6, PBLUC_R_SQUARED 0.124, read-out: LUCIFERASE INFECTION ASSAY - IC50): 8.88 µM
OC(c1ccc(Cl)cc1)c1nnc(Nc2ccc(Oc3ccccc3)cc2)s1 (configuration not stated) | > 10 µM | IC50 (PBLUC_HILL_SLOPE 7.15, PBLUC_R_SQUARED 0.699, read-out: LUCIFERASE INFECTION ASSAY - IC50): 8.48 µM
COC(=O)c1cc(OC)c(OC)cc1NC(=O)c1ccccc1Br | > 8.37 µM | IC50 [1]: > 8.37 µM
CCOc1ccccc1OCC(=O)Nc1nc(-c2cc(C)n(-c3ccc(F)cc3)c2C)cs1 | > 10 µM | IC50 [1]: > 10 µM
CC(NS(=O)(=O)c1ccc(-n2ncc(Cl)c(Cl)c2=O)cc1)c1ccc2ccccc2c1 (configuration not stated) | 3.82 µM | IC50 (FFLUC_HILL_SLOPE 0.605, FFLUC_R_SQUARED 0.525, HEPG2TOX_HILL_SLOPE 11.4, HEPG2TOX_R_SQUARED 0.983, PBLUC_HILL_SLOPE 12.9, PBLUC_R_SQUARED 0.58, read-out: LUCIFERASE INFECTION ASSAY - IC50): 3.22 µM
O=[N+]([O-])c1ccc(/C=[N+](\[O-])c2ccccc2)s1 | > 13.3 µM | IC50 [1]: > 13.3 µM
CCCCCCCc1ccc(C(=O)Nc2ccc(F)c(Cl)c2)cc1 | > 9.49 µM | IC50 (FFLUC_HILL_SLOPE 16.3, FFLUC_R_SQUARED 0.0372, PBLUC_HILL_SLOPE 1.73, PBLUC_R_SQUARED 0.521, read-out: LUCIFERASE INFECTION ASSAY - IC50): 4.92 µM
Clc1ccc2c(c1)C(Nc1ccc3nnnn3n1)CCS2 (configuration not stated) | > 10 µM | IC50 (HEPG2TOX_HILL_SLOPE 2.38, HEPG2TOX_R_SQUARED 0.171, read-out: LUCIFERASE INFECTION ASSAY - IC50): > 10 µM
COc1ccccc1N(C)S(=O)(=O)c1ccc(Cl)c(C(=O)Nc2cccc(C)n2)c1 | 2.83 µM | IC50 (PBLUC_HILL_SLOPE 3.61, PBLUC_R_SQUARED 0.716, read-out: LUCIFERASE INFECTION ASSAY - IC50): 1.54 µM
Cc1sc(-n2cccc2)c(C(=O)Nc2cccc(-c3nn[nH]n3)c2)c1C | > 10 µM | IC50 (FFLUC_HILL_SLOPE 1.33, FFLUC_R_SQUARED 0.778, read-out: LUCIFERASE INFECTION ASSAY - IC50): > 10 µM
CCc1noc(C)c1C(=O)OCc1csc(N(C(C)=O)c2ccccc2)n1 | > 10 µM | IC50 [1]: > 10 µM
O=C(Nc1ccc(Cl)cc1)Nc1cc(Cl)c(-n2cccc2)cc1Cl | > 8.67 µM | IC50 (FFLUC_HILL_SLOPE 11.8, FFLUC_R_SQUARED 0.707, PBLUC_HILL_SLOPE 1.68, PBLUC_R_SQUARED 0.178, read-out: LUCIFERASE INFECTION ASSAY - IC50): 6.82 µM
N#Cc1nncn1Cc1csc(-c2cccs2)n1 | 9.56 µM | IC50 (PBLUC_HILL_SLOPE 12.1, PBLUC_R_SQUARED 0.315, read-out: LUCIFERASE INFECTION ASSAY - IC50): 7.97 µM
COc1ccc(Nc2ncnc3scc(-c4ccc(OC)cc4)c23)cc1 | 4.29 µM | IC50 [1]: 2.65 µM
COc1ccc(CN2C(=O)N(CC(C)C)C3(CCN(CCCc4ccccc4)CC3)C2=O)cc1 | 4.86 µM | IC50 (HEPG2TOX_HILL_SLOPE 0.288, HEPG2TOX_R_SQUARED 0.281, PBLUC_HILL_SLOPE 3.96, PBLUC_R_SQUARED 0.368, read-out: LUCIFERASE INFECTION ASSAY - IC50): 2.79 µM
CCCn1c(C)cc(C(=O)CN(C)S(=O)(=O)c2ccc(F)cc2)c1C | > 10 µM | IC50 (HEPG2TOX_HILL_SLOPE 0.529, HEPG2TOX_R_SQUARED 0.126, read-out: LUCIFERASE INFECTION ASSAY - IC50): > 10 µM
COc1ccccc1C(=O)c1cnc(Nc2cccc(Oc3ccccc3)c2)[nH]1 | 3.37 µM | IC50 (HEPG2TOX_HILL_SLOPE 2.29, HEPG2TOX_R_SQUARED 0.975, PBLUC_HILL_SLOPE 12.2, PBLUC_R_SQUARED 0.607, read-out: LUCIFERASE INFECTION ASSAY - IC50): 2.81 µM
O=c1c2ccccc2nnn1CSc1nc2ccccc2c(=O)n1CCC1=CCCCC1 | 9.59 µM | IC50 (HEPG2TOX_HILL_SLOPE 2.76, HEPG2TOX_R_SQUARED 0.854, PBLUC_HILL_SLOPE 2.95, PBLUC_R_SQUARED 0.421, read-out: LUCIFERASE INFECTION ASSAY - IC50): 4.55 µM

SMILES | IC90 | further results
CC(C)NC(=O)N1CCCC(C(=O)Nc2nc3c(ccc4ccccc43)s2)C1 (configuration not stated) | > 10 µM | IC50 (PBLUC_HILL_SLOPE 2.07, PBLUC_R_SQUARED 0.824, read-out: LUCIFERASE INFECTION ASSAY - IC50): 4.39 µM
O=S(=O)(c1cc(C(F)(F)F)ccn1)c1cccs1 | > 11.3 µM | IC50 [1]: > 11.3 µM
Cc1ccc2cc(C)c(N/N=C/c3c(C)nn(-c4ccccc4)c3Cl)nc2c1 | 9.17 µM | IC50 (PBLUC_HILL_SLOPE 2.56, PBLUC_R_SQUARED 0.451, read-out: LUCIFERASE INFECTION ASSAY - IC50): 3.89 µM
OC(COc1ccc(Cl)cc1)CN1CCC(Cc2ccccc2)CC1 (configuration not stated) | 8.19 µM | IC50 (PBLUC_HILL_SLOPE 16.8, 4.66, PBLUC_R_SQUARED 0.391, 0.0786, read-out: LUCIFERASE INFECTION ASSAY - IC50): 6.33 µM
O=C(Nc1nc2ccccc2[nH]1)C(Sc1ccccc1)c1ccccc1 (configuration not stated) | > 10 µM | IC50 [1]: > 10 µM
COc1ccc(NC(=O)C2C(=S)NC(=N)C(C#N)C2c2ccc(Cl)cc2)cc1 (configuration not stated) | > 10 µM | IC50 [1]: > 10 µM
CCOc1ccc(-c2n[nH]c(C)c2Oc2ccccc2Br)c(O)c1 | > 8.48 µM | IC50 (FFLUC_HILL_SLOPE 1.83, FFLUC_R_SQUARED 0.626, read-out: LUCIFERASE INFECTION ASSAY - IC50): > 8.48 µM
CC(C)c1ccc(S(=O)(=O)c2ccc(NNC(=O)c3ccccc3OCc3ccc(Cl)cc3)cc2)cc1 | > 10 µM | IC50 (FFLUC_HILL_SLOPE 4.22, FFLUC_R_SQUARED 0.402, PBLUC_HILL_SLOPE 10.9, PBLUC_R_SQUARED 0.175, read-out: LUCIFERASE INFECTION ASSAY - IC50): 8.49 µM
COc1ccc(OC)c(CCNc2nc3cnc(-c4ccc(Cl)cc4)cc3n2C)c1 | 3.74 µM | IC50 (HEPG2TOX_HILL_SLOPE 1.93, HEPG2TOX_R_SQUARED 0.878, PBLUC_HILL_SLOPE 2.27, PBLUC_R_SQUARED 0.668, read-out: LUCIFERASE INFECTION ASSAY - IC50): 1.42 µM
COc1ccc(C(=O)Nc2nonc2-c2ccc(F)cc2)cc1Cl | 3.66 µM | IC50 [1]: 3.16 µM
CN(C)CCCCCCOc1ccc2c(c1)CCC1C2CCC2(C)C(=O)CCC12 (configuration not stated) | > 8.3 µM | IC50 (PBLUC_HILL_SLOPE 2.65, PBLUC_R_SQUARED 0.355, read-out: LUCIFERASE INFECTION ASSAY - IC50): 3.69 µM
C=c1onc(-c2c(F)cccc2Cl)c1=C1NC(c2cc(C(F)(F)F)cc(C(F)(F)F)c2)=NO1 | > 6.71 µM | IC50 (PBLUC_HILL_SLOPE 0.442, PBLUC_R_SQUARED 0.157, read-out: LUCIFERASE INFECTION ASSAY - IC50): > 6.71 µM
CC(C)c1ccccc1N(C(=O)C1CC(=O)N(CCc2ccccc2)C1)c1nc2ccccc2s1 (configuration not stated) | > 10 µM | IC50 (HEPG2TOX_HILL_SLOPE 7.95, HEPG2TOX_R_SQUARED 0.294, read-out: LUCIFERASE INFECTION ASSAY - IC50): > 10 µM
O=C(Nc1ccccc1C(=O)Nc1nnc(C(F)(F)F)s1)c1ccccc1 | 1.89 µM | IC50 (HEPG2TOX_HILL_SLOPE 6.74, HEPG2TOX_R_SQUARED 0.749, PBLUC_HILL_SLOPE 2.08, PBLUC_R_SQUARED 0.449, read-out: LUCIFERASE INFECTION ASSAY - IC50): 0.658 µM
O=C(Nc1ccc2c(c1)OC(F)(F)O2)c1ccc(F)c(F)c1 | > 10 µM | IC50 [1]: 9.62 µM
COc1cc(-c2nc3ccc(NC(=O)c4cccs4)cn3n2)cc(OC)c1OC | 6.23 µM | IC50 (PBLUC_HILL_SLOPE 2.1, PBLUC_R_SQUARED 0.836, read-out: LUCIFERASE INFECTION ASSAY - IC50): 2.19 µM
Cc1cc(O)c(C(=O)/C=C/c2cccc(C(F)(F)F)c2)c(=O)o1 | > 10 µM | IC50 (FFLUC_HILL_SLOPE 56.9, FFLUC_R_SQUARED 0.7, read-out: LUCIFERASE INFECTION ASSAY - IC50): > 10 µM
N#C/C(=N\Nc1cc(C(F)(F)F)cc(C(F)(F)F)c1)S(=O)(=O)c1cccs1 | 2 µM | IC50 (FFLUC_HILL_SLOPE 43.6, FFLUC_R_SQUARED 0.536, HEPG2TOX_HILL_SLOPE 2.45, HEPG2TOX_R_SQUARED 0.984, PBLUC_HILL_SLOPE 3.51, PBLUC_R_SQUARED 0.744, read-out: LUCIFERASE INFECTION ASSAY - IC50): 1.07 µM
O=C1CCCN1c1ccc(CNc2ccccc2S(=O)(=O)C(F)(F)F)cc1 | > 10 µM | IC50 (HEPG2TOX_HILL_SLOPE 0.628, HEPG2TOX_R_SQUARED 0.884, read-out: LUCIFERASE INFECTION ASSAY - IC50): > 10 µM
CCN(c1ccc(-c2csc(Nc3ccc4c(c3)OCCO4)n2)cc1)S(C)(=O)=O | 5.7 µM | IC50 (FFLUC_HILL_SLOPE 1.56, FFLUC_R_SQUARED 0.608, HEPG2TOX_HILL_SLOPE 4.65, HEPG2TOX_R_SQUARED 0.413, PBLUC_HILL_SLOPE 3.4, PBLUC_R_SQUARED 0.614, read-out: LUCIFERASE INFECTION ASSAY - IC50): 2.99 µM
